In patent publication US12129248B2, “Chromobox protein inhibitors and uses thereof” (Dana-Farber Cancer Institute, Inc., priority 2016, dated 2024):
pIC50: −log10 of the molar value. Values joined by “and” are separate entries in the source; they are usually repeats but may differ in a detail not shown here. Equal entries are not always repeated.

Biological target: Human His6-CBX7 (Homo sapiens (Human), UniProt O95931)
Assay: CBX7 AlphaScreen assay (binding of CBX7 chromodomain to H3K27me3 peptide)
Conditions: average; His6-CBX7 / biotinylated-H3K27me3; read-out: AVG CBX7 Alpha IC50
Excerpt: A biochemical assay was developed based on nanoparticle AlphaScreen assay to monitor the binding of recombinant CBX chromodomain (CBX7) to a methylated peptide (H3K27me3).
The primary assay uses recombinant CBX chromodomain and synthetic, trimethylated H3 histone tail peptide. When CBX/histone tail-binding occurs, AlphaScreen beads are brought in close proximity, resulting in singlet molecular oxygen transfer and production of a luminescent signal. Assay positives inhibiting the binding interaction are therefore expected to prevent complex formation, diminishing signal intensity. The AlphaScreen technology features an anti-Stokes shift in detection: due to energy transfer between beads by singlet oxygen and internal chemical reactions within the acceptor bead, the emission wavelength is blue-shifted relative to the excitation wavelength, which is impossible in traditional fluorescent assays. The relatively long path length of 200 nm that singlet molecular oxygen can travel enables reporting on full protein complexes and not just single target binding. […] Neither the small molecules being tested nor the target protein, CBX7, need to be chemically, conformationally, or behaviorally altered by tethering them to a surface or reporter that may decrease physiological relevance and beget screening artifacts. The primary assay monitors binding of the chromodomain of CBX7 to a histone tail containing a trimethylated lysine at K27, the biologically relevant interaction through which PRC binds to chromatin to repress transcription. This is a robust proximity-based assay that utilizes AlphaScreen technology (PerkinElmer). The assay consists of His6-CBX7 bound to a Ni^++ acceptor bead and the biotinylated histone tail bound to a streptavadin donor bead. Upon CBX7/H3K27me3 binding, the steptavidin bead comes into proximity with the Ni^++ bead to luminesce upon light excitation ([…]; see below).
The protocol for the CBX7 AlphaScreen was as follows: a standard alpha buffer (50 mM HEPES, 150 mM NaCl, 0.1% w/v BSA, 0.01% w/v Tween20) at pH 8.0 and make up two stock solutions at 2× final concentration in the alpha buffer. Solution A contains Human His6-CBX7 is used with biotinylated-H3K27me3 (residues 20-34), at 100 nM and 50 nM respectively. Solution B contains 20 nM streptavidin donor beads and 20 nM nickel acceptor beads. For 384 well assay formats, 10 uL of solution A is added to each well of the assay plate and the plate is spun at 1000 rpm for 30 seconds. 100 nL of experimental compounds from stock plates are delivered by robotic pin transfer using a Janus Workstation (PerkinElmer), allowing the compounds to interact with CBX7 binding prior to assay measurement, followed by another spin and an incubation room temperature. Finally, 10 uL of solution B is added to each well, the plate is spun again and then incubated at room temperature. AlphaScreen measurements are performed on an Envision 2104 (PerkinElmer) utilizing the manufacturer's protocol that has the correct excitation and emission wavelengths, cutoff filters, delay time, etc. A crosstalk calculation is also done through the Envision software to correct for luminescence for adjacent wells while reading the plate. The signal is then normalized to DMSO control wells on the compound plate prior to creation of the IC50 curves.

Human His6-CBX7, sequence (O95931 11-69): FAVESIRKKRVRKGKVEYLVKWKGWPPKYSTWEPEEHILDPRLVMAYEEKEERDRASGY

Compound | pIC50
O=C(Nc1ccc(N2CCCC2)cc1)c1ccc2nc(-c3ccc(O)c(O)c3O)c(NCc3ccccc3)n2c1 [ACV-3-142, 3-(benzylamino)-N-(4-(pyrrolidin-1-yl)phenyl)-2-(2,3,4-trihydroxyphenyl)imidazo[1,2-a]pyridine-6-carboxamide] | 6.18
O=C(N/N=C/c1c(O)cc(O)cc1O)c1cc(-c2ccco2)nc2ccccc12 [ACV-03] | 6.35
O=C(N/N=C/c1ccc(N2CCCC2)cc1)c1cc(-c2ccco2)nc2ccccc12 [ACV-05] | 5.73
CN(C)CCCOc1ccc(/C=N/NC(=O)c2cc(-c3ccco3)nc3ccccc23)cc1 [ACV-06] | 4.87
O=C(O)c1cc(-c2ccco2)nc2ccccc12 [ACV-07 (2)] | 3.71
CN(C)c1ccc(CCNC(=O)c2cc(-c3ccco3)nc3ccccc23)cc1 [ACV-08] | 4.99
O=C(NCc1cccc(N2CCCC2)n1)c1cc(-c2ccco2)nc2ccccc12 [ACV-09] | 5.13
CN1CCN(c2ccc(NC(=O)c3cc(-c4ccco4)nc4ccccc34)cc2)CC1 [ACV-10] | 4.69
O=C(O)c1cc(-c2ccco2)nc2ccc(Br)cc12 [ACV-11] | 5.07
CN(C)c1ccc(CC(CO)NC(=O)c2cc(-c3ccco3)nc3ccccc23)cc1 (stereo not shown) [ACV-12, N-(1-(4-(dimethylamino)phenyl)-3-hydroxypropan-2-yl)-2-(furan-2-yl)quinoline-4-carboxamide] | 5.21
O=C(Nc1ccc(CCN2CCCC2)cc1)c1cc(-c2ccco2)nc2ccccc12 [ACV-13] | 4.16
O=C(CC1S/C(=N/N=C/c2cccnc2)NC1=O)Nc1ccc(N2CCCC2)cc1 (stereo not shown) [ACV-14 (1)] | 5.36
O=C(CC1S/C(=N/N=C/c2ccccn2)NC1=O)Nc1ccc(N2CCCC2)cc1 (stereo not shown) [ACV-15] | 4.43
O=C(CC1S/C(=N/N=C/c2ccc(C(=O)O)cc2)NC1=O)Nc1ccc(N2CCCC2)cc1 (stereo not shown) [ACV-16] | 5.17
O=C(CC1S/C(=N/N=C/c2ccc(O)c(O)c2O)NC1=O)Nc1ccc(N2CCCC2)cc1 (stereo not shown) [ACV-17(3)] | 6.00
O=C(CC1S/C(=N/N=C/c2ccc(O)c(O)c2O)NC1=O)Nc1ccc(N2CCCC2)cc1 (stereo not shown) [ACV-17(4)] | 5.81
O=C(CC1S/C(=N/N=C/c2ccc(O)c(O)c2O)NC1=O)Nc1ccc(N2CCCC2)cc1 (stereo not shown) [ACV-17* (P1)] | 5.63
O=C(CC1S/C(=N/N=C/c2ccc(O)c(O)c2O)NC1=O)Nc1ccc(N2CCCC2)cc1 (stereo not shown) [ACV-17* (P2)] | 5.47
COC(=O)c1ccc(-c2ccc(/C=N/N=C3\NC(=O)C(CC(=O)Nc4ccc(N5CCCC5)cc4)S3)cc2)cc1 (stereo not shown) [ACV-20] | 4.54
CN(C)c1ccc(/C=N/N=C2\NC(=O)C(CC(=O)Nc3ccc(N4CCCC4)cc3)S2)cc1 (stereo not shown) [ACV-21] | 5.43
O=C(CC1SCC(C(=O)N/N=C/c2cccnc2)NC1=O)Nc1ccc(N2CCCC2)cc1 (stereo not shown) [ACV-24] | 4.19
COc1cc(/C=N/NC(=O)C2CSC(CC(=O)Nc3ccc(N4CCCC4)cc3)C(=O)N2)ccc1O (stereo not shown) [ACV-25] | 4.22

Compound | pIC50
O=C(CC1S/C(=N/N=C/c2ccc3cccnc3n2)NC1=O)Nc1ccc(N2CCCC2)cc1 (stereo not shown) [ACV-26] | 4.78
Cc1ccc(/C=N/N=C2\NC(=O)C(CC(=O)Nc3ccc(N4CCCC4)cc3)S2)cc1F (stereo not shown) [ACV-27] | 4.47
O=C(CC1S/C(=N/N=C/c2cncnc2)NC1=O)Nc1ccc(N2CCCC2)cc1 (stereo not shown) [ACV-28] | 4.35
CC(C)(C)c1ccc(/C=N/N=C2\NC(=O)C(CC(=O)Nc3ccc(N4CCCC4)cc3)S2)cc1 (stereo not shown) [ACV-29] | 4.41 and 4.81
O=C(CC1S/C(=N/C(=O)c2ccccc2)NC1=O)Nc1ccc(N2CCCC2)cc1 (stereo not shown) [ACV-30] | 4.41
O=C(CC1S/C(=N/Cc2cccnc2)NC1=O)Nc1ccc(N2CCCC2)cc1 (stereo not shown) [ACV-31] | 3.39
O=C(CC1S/C(=N/N=C/c2cccc(-c3ccc(C(=O)O)cc3)c2)NC1=O)Nc1ccc(N2CCCC2)cc1 (stereo not shown) [ACV-32] | 4.63
O=C(Cc1cccnc1)/N=C1\NC(=O)C(CC(=O)Nc2ccc(N3CCCC3)cc2)S1 (stereo not shown) [ACV-33] | 4.25
O=C(CC1SCC(C(=O)N/N=C/c2ccc(O)c(O)c2O)NC1=O)Nc1ccc(N2CCCC2)cc1 (stereo not shown) [ACV-34] | 5.10
O=C(CC1S/C(=N/N=C/c2ccc(O)c(O)c2)NC1=O)Nc1ccc(N2CCCC2)cc1 (stereo not shown) [ACV-36 (1)] | 5.00
O=C(CC1S/C(=N/N=C/c2ccc(O)c(O)c2)NC1=O)Nc1ccc(N2CCCC2)cc1 (stereo not shown) [ACV-36 (2)] | 4.61
COc1cccc(/C=N/N=C2\NC(=O)C(CC(=O)Nc3ccc(N4CCCC4)cc3)S2)c1OC (stereo not shown) [ACV-37] | 3.94
COc1ccc(NC(=O)CC2S/C(=N/N=C/c3cccnc3)NC2=O)cc1OC (stereo not shown) [ACV-38] | 3.78
O=C(CC1S/C(=N/N=C/c2ccc(Cl)nc2)NC1=O)Nc1ccc(N2CCCC2)cc1 (stereo not shown) [ACV-39] | 4.58
O=C(Cc1cnc(NC(=O)Cc2cccnc2)s1)Nc1ccc(Br)cc1 [ACV-41] | 2.84
COc1ccc(-c2ccc3nc(-c4ccco4)cc(C(=O)NCCc4ccc(N(C)C)cc4)c3c2)cc1OC [ACV-43] | 2.04
COc1ccc(-c2ccc3nc(-c4ccco4)cc(C(=O)Nc4ccc(N5CCN(C)CC5)cc4)c3c2)cc1OC [ACV-44] | 4.00
CN1CCN(c2ccc(NC(=O)Cc3cnc(NC(=O)Cc4cccnc4)s3)cc2)CC1 [ACV-46] | 4.05
O=C(Cc1cnc(NC(=O)Nc2cc(F)c(F)cc2F)s1)Nc1ccc(N2CCCC2)cc1 [ACV-47] | 1.84
O=C(Cc1cnc(NC(=O)Cc2cccnc2)s1)Nc1ccc(N2CCCC2)cc1 [ACV-48 (1)] | 3.39
O=C(Cc1cnc(NC(=O)Cc2cccnc2)s1)Nc1ccc(N2CCCC2)cc1 [ACV-48 (2)] | 3.22
O=C(Cc1cnc(NC(=O)Nc2ccc(F)cc2)s1)Nc1ccc(N2CCCC2)cc1 [ACV-49] | 4.76

Compound | pIC50
COc1cc(NC(=O)Nc2ncc(CC(=O)Nc3ccc(N4CCCC4)cc3)s2)cc(OC)c1OC [ACV-50] | 5.14
O=C(Cc1cnc(NC(=O)Nc2cccc(C(F)(F)F)c2)s1)Nc1ccc(N2CCCC2)cc1 [ACV-51] | 4.62
COc1ccc(NC(=O)Nc2ncc(CC(=O)Nc3ccc(N4CCCC4)cc3)s2)cc1OC [ACV-53] | 4.90
O=C(Cc1cnc(NC(=O)Nc2cccc(Cc3ccccc3)c2)s1)Nc1ccc(N2CCCC2)cc1 [ACV-54] | 5.03
O=C(Cc1cnc(NC(=O)Nc2cccnc2)s1)Nc1ccc(CN2CCCC2)cc1 [ACV-55] | 4.64
O=C(COCc1cccnc1)N1CCN(C(=O)c2ccc(CCN3CCCC3)cc2)CC1 [ACV-56] | 4.19
O=C(COCc1ccc(CN2CCCC2)cc1)N1CCN(C(=O)c2cccnc2)CC1 [ACV-57] | 3.47
C(=N\Nc1nc(-c2ccc(OCc3ccccc3)cc2)cs1)/c1cccnc1 [ACV-59] | 3.12
NC(=S)N/N=C/c1ccc(O)c(O)c1O [ACV-60] | 6.44
O=C(Nc1csc(N/N=C/c2ccc(O)c(O)c2O)n1)c1ccc(CCN2CCCC2)cc1 [ACV-61] | 5.40
Oc1ccc(/C=N/Nc2nc(-c3ccc(N4CCCC4)cc3)cs2)c(O)c1O [ACV-62] | 6.06
CN1CCN(CCNC(=O)CC2S/C(=N/N=C/c3ccc(O)c(O)c3O)NC2=O)CC1 (stereo not shown) [ACV-63 (2)] | 4.65
O=C(O)c1ccc(-c2csc(N/N=C/c3ccc(O)c(O)c3O)n2)cc1 [ACV-64] | 5.28
CN(C)c1ccc(CCNC(=O)CC2SC(N/N=C/c3ccc(O)c(O)c3O)=NC2=O)cc1 (stereo not shown) [ACV-66] | 4.92
O=C(CCC(=O)c1ccc(CN2CCCC2)cc1)NC1CCCN(C(=O)c2cccnc2)C1 (stereo not shown) [ACV-70] | 4.33
O=C(CCC(=O)N1CCCC(NC(=O)c2cccnc2)C1)c1ccc(CN2CCCC2)cc1 (stereo not shown) [ACV-71] | 2.31
COc1cccc(C(=O)N2CCN(C(=O)COc3cccc(C)c3)CC2)c1OC [ACV-72] | 3.91
O=C(NCCN1CCCC1)c1ccc(-c2csc(N/N=C/c3ccc(O)c(O)c3O)n2)cc1 [ACV-73] | 5.78
O=C(Cc1cnc(NC(=O)C(F)(F)c2ccccc2)s1)Nc1ccc(N2CCCC2)cc1 [ACV-74] | 3.78
CN1CCN(CCNC(=O)c2ccc(-c3csc(N/N=C/c4ccc(O)c(O)c4O)n3)cc2)CC1 [ACV-75] | 7.16
CN(C)c1ccc(CCNC(=O)CC2SC(N/N=C/c3ccc(N4CCCC4)cc3)=NC2=O)cc1 (stereo not shown) [ACV-76] | 5.42

Same assay, conditions: versus Scaffold 2 (FIG. 7)

Compound | improvement in binding affinity compared to the original scaffold
O=C(N/N=C/c1c(O)cc(O)cc1O)c1cc(-c2ccco2)nc2ccccc12 [ACV-03] | more than 5 fold
O=C(N/N=C/c1ccc(N2CCCC2)cc1)c1cc(-c2ccco2)nc2ccccc12 [ACV-05] | more than 5 fold
